Numbers after ± are expanded uncertainties.
Details: Liquid; for mass density: 100 kPa, Vibrating tube method; for viscosity: 101.33 kPa, Concentric cylinders viscometry

Q: For CC(C)(CO)[C@@H](O)C(=O)NCCCO [d-Panthenol], which mass density (293.15 K) is on record?
A: 1165.18 ± 1.9 kg/m3

Q: And the viscosity (293.15 K)?
A: 527287 ± 66000 mPa·s

Q: And the mass density (298.15 K)?
A: 1161.68 ± 1.9 kg/m3

Q: What about the viscosity (298.15 K) of the same molecule?
A: 261544 ± 30000 mPa·s

Q: And the mass density (303.15 K)?
A: 1158.27 ± 1.9 kg/m3

Q: What about the viscosity (303.15 K) of the same molecule?
A: 125673 ± 13000 mPa·s

Q: And the mass density (308.15 K)?
A: 1154.96 ± 1.9 kg/m3

Q: And the viscosity (308.15 K)?
A: 68487 ± 6700 mPa·s

Q: And the mass density (313.15 K)?
A: 1151.46 ± 1.9 kg/m3

Q: And the viscosity (313.15 K)?
A: 37252 ± 3300 mPa·s

Reference: the NIST ThermoML archive (doi:10.1016/j.jct.2017.10.014)
